Measured values as given in patent US20050014942A1, “Amide derivatives and drugs” (priority 2001, published 2005).
Where a name gives a salt, the structure may show the parent alone.

Key:
[1] = system: collagen production induced by TGF-β (NHDF cells); assay: Inhibitory effect on collagen production induced by TGF-β, [3H] proline uptake (NHDF cells); type: cell-based, human; details: TGF-β1 3 ng/ml; for inhibition at 1 µM / inhibition at 3 µM / inhibition at 10 µM: Homo sapiens, NHDF
Method: As an index of collagen production, the uptake of [^3H] proline was measured.
Using a 96-well microplate, normal human skin derived fibroblast (NHDF, 10^4/well) or human embryonic lung fibroblast (TIG-3, 10^4/well) were cultured in a 10% fetal calf serum (FCS)-containing Dulbecco's modified Eagle medium (DMEM) for one day. After removing the culture supernatant, the cells were washed once with a 0.1% bovine serum albumin (BSA)-containing DMEM medium and then cultured in the 0.1% bovine serum albumin (BSA)-containing DMEM medium for one day. After adding each of the test compounds in each concentration (1, 3, 10 μM), the cells were cultured and, after adding TGF-β1 (3 ng/ml) and [^3H] proline (18.5 kBq/well), the cells were further cultured for additional one day.
After removing the culture supernatant, the cells were washed twice with a phosphate buffer solution (PBS) and dissolved with 0.3M NaOH and 1% sodium dodecylsulfate (SDS), and then each protein fraction was precipitated with trichloroacetic acid (TCA) After the precipitate was filtered through a glass filter (GF/B) and washed, the quantity of [^3H] proline on the glass filter was measured by a liquid scintillation counter. The number of cells was measured by a cell growth measuring kit (XTT, Roche) and the uptake of [^3H] proline was corrected by the number of cells. Inhibitory ratio was calculated as compared with the case where a difference between the uptake of [^3H] proline with or without TGF-β1.

[2] = Measurement of concentration of compound in rat plasma; type: in vivo; details: oral 10 mg/kg; for concentration at 0.25 h: after 0.25 hours; for concentration at 1 h: after 1 hour; for concentration at 4 h: after 4 hours
Method: Each of the test compounds was dissolved or suspended in methyl cellulose and the resulting solution or suspension was orally administered to rats at a dosage of 10 mg/kg and blood was collected after 0.25 hours, 1 hour and 4 hours. The concentration in plasma in each of the compounds was measured by HPLC.

SMILES | inhibition at 1 µM ([1]; 1 μM) [%] | inhibition at 3 µM ([1]; 3 μM) [%] | inhibition at 10 µM ([1]; 10 μM) [%] | also measured
Cc1ccc2c(c1)c(C(=O)N1CCN(c3cnc(C(=O)NCCc4scnc4C)cn3)CC1)c(-c1ccccc1)n2C [Example 5, 5-{4-[(1,5-dimethyl-2-phenyl-1H-indol-3-yl)carbonyl]piperazin-1-yl}-N-[2-(4-methyl-1,3-thiazol-5-yl)ethyl]pyrazine-2-carboxamide trihydrochloride] | 40 | 43 | 88 | concentration at 0.25 h [2]: 1400 to 2300 ng/mL; concentration at 1 h [2]: 520 to 720 ng/mL; concentration at 4 h [2]: 87 to 160 ng/mL
CO[C@H]1Cc2ccccc2[C@H]1NC(=O)/C=C/c1c(-c2ccccc2)n(C)c2ncccc12 [Example 4, (2E)-N-[(1R,2S)-2-methoxy-2,3-dihydro-1H-inden-1-yl]-3-(1-methyl-2-phenyl-1H-pyrrolo[2,3-b]pyridin-3-yl)acrylamide hydrochloride] | 41 | 70 | 138 | concentration at 0.25 h [2]: 390 to 500 ng/mL; concentration at 1 h [2]: 490 to 590 ng/mL; concentration at 4 h [2]: 180 to 290 ng/mL
COc1cc2c(cc1OC)C(C)N(C(=O)/C=C/c1c(-c3ccccc3)n(C)c3ncccc13)CC2 (stereo not drawn) [Example 3, 6,7-dimethoxy-1-methyl-2-[(2E)-3-(1-methyl-2-phenyl-1H-pyrrolo[2,3-b]pyridin-3-yl)prop-2-enoyl]-1,2,3,4-tetrahydroisoquinoline hydrochloride] | 65 | 105 | 143 | concentration at 0.25 h [2]: 120 to 660 ng/mL; concentration at 1 h [2]: 370 to 640 ng/mL; concentration at 4 h [2]: 260 to 310 ng/mL
Cc1cnc2c(c1)c(C(=O)N1CCN(c3cnc(C(=O)NCCc4scnc4C)cn3)CC1)c(-c1ccccc1)n2C [Example 148, 5-{4-[(1,5-dimethyl-2-phenyl-1H-pyrrolo[2,3-b]pyridin-3-yl)carbonyl]piperazin-1-yl}-N-[2-(4-methyl-1,3-thiazol-5-yl)ethyl]pyrazine-2-carboxamide trihydrochloride] | 29 | 53 | – | –
CN(CCC(O)c1ccccc1)C(=O)/C=C/c1c(-c2ccc(F)cc2)n(C)c2ccccc12 (stereo not drawn) [Example 110, (2E)-N-methyl-N-(3-hydroxy-3-phenylpropyl)-3-[1-methyl-2-(4-fluorophenyl)-1H-indol-3-yl]acrylamide] | – | 66 | 143 | –
CN(CCC(O)c1ccccc1)C(=O)/C=C/c1c(-c2ccc3c(c2)OCO3)n(C)c2ccccc12 (stereo not drawn) [Example 112, (2E)-N-methyl-N-(3-hydroxy-3-phenylpropyl)-3-[1-methyl-2-(3,4-methylenedioxyphenyl)-1H-indol-3-yl]acrylamide] | – | 73 | 143 | –
COCn1c(-c2ccccc2)c(/C=C/C(=O)N2CCc3cc(OC)c(OC)cc3C2)c2cccnc21 [Example 139, 2-[(2E)-3-(1-methoxymethyl-2-phenyl-1H-pyrrolo[2,3-b]pyridin-3-yl)prop-2-enoyl]-6,7-dimethoxy-1,2,3,4-tetrahydroisoquinoline hydrochloride] | 37 | 54 | – | –
Cc1ccc2c(c1)c(C(=O)N1CCN(c3ccc(-c4nnn(C)n4)cn3)CC1)c(-c1ccccc1)n2C [Example 26, 1,5-dimethyl-2-phenyl-3-[{4-[5-(2-methyl-2H-tetrazol-5-yl)pyridin-2-yl]piperazin-1-yl}carbonyl]-1H-indole] | – | – | – | concentration at 0.25 h [2]: 230 to 800 ng/mL; concentration at 1 h [2]: 130 to 300 ng/mL; concentration at 4 h [2]: 0 to 92 ng/mL
Cc1ccc2c(c1)c(C(=O)N1CCN(c3cnc(C(=O)NCCc4ccc(O)cc4)cn3)CC1)c(-c1ccccc1)n2C [Example 145, 5-{4-[(1,5-dimethyl-2-phenyl-1H-indol-3-yl)carbonyl]piperazin-1-yl}-N-[2-(4-hydroxyphenyl)ethyl]pyrazine-2-carboxamide hydrochloride] | 55 | 64 | – | –
COc1cc2c(cc1OC)CN(C(=O)/C=C/c1c(-c3ccccc3)[nH]c3ncccc13)CC2 [Example 138, 6,7-dimethoxy-2-[(2E)-3-(2-phenyl-1H-pyrrolo[2,3-b]pyridin-3-yl)prop-2-enoyl]-1,2,3,4-tetrahydroisoquinoline dihydrochloride] | 65 | 53 | – | –
COC(=O)CC1c2cc(OC)c(OC)cc2CCN1C(=O)/C=C/c1c(-c2ccccc2)n(C)c2ncccc12 (stereo not drawn) [Example 133, Methyl {6,7-dimethoxy-2-[(2E)-3-(1-methyl-2-phenyl-1H-pyrrolo[2,3-b]pyridin-3-yl)prop-2-enoyl]-1,2,3,4-tetrahydroisoquinolin-1-yl}acetate hydrochloride] | 57 | 104 | – | –
CCOC(=O)C1CCCC1NC(=O)/C=C/c1c(-c2ccccc2)n(C)c2ncccc12 (stereo not drawn) [Example 126, Ethyl 2-{N-[(2E)-3-(1-methyl-2-phenyl-1H-pyrrolo[2,3-b]pyridin-3-yl)prop-2-enoyl]amino}-1-cyclopentanecarboxylate] | 29 | 86 | – | –
CC1c2cc(O)c(O)cc2CCN1C(=O)/C=C/c1c(-c2ccccc2)n(C)c2cc3c(cc12)OCO3 (stereo not drawn) [Example 117, 2-{(2E)-3-[1-methyl-2-phenyl-(5,6-methylenedioxy)-1H-indol-3-yl]prop-2-enoyl}-1-methyl-6,7-dihydroxy-1,2,3,4-tetrahydroisoquinoline] | – | – | – | Inhibitory effect on collagen production induced by TGF-β (% inhibition) ([1]; 3 μM): 82%; Inhibitory effect on collagen production induced by TGF-β (% inhibition) ([1]; 10 μM): 140%
COc1cc2c(cc1OC)CN(C(=O)/C=C/c1c(-c3ccccc3)n(C)c3ncccc13)CC2 [Example 109, 2-[(2E)-3-(1-methyl-2-phenyl-1H-pyrrolo[2,3-b]pyridin-3-yl)prop-2-enoyl]-6,7-dimethoxy-1,2,3,4-tetrahydroisoquinoline hydrochloride] | 50 | 76 | 135 | –
CCOC(=O)C1CCCC1NC(=O)c1cnc(N2CCN(C(=O)c3c(-c4ccccc4)n(C)c4ccc(C)cc34)CC2)cn1 (stereo not drawn) [Example 129, Ethyl 2-{N-[(5-{4-[(1,5-dimethyl-2-phenyl-1H-indol-3-yl)carbonyl]piperazin-1-yl}pyrazin-2-yl)carbonyl]amino}-1-cyclopentanecarboxylate] | 75 | 73 | – | –
COc1ccc(-c2c(/C=C/C(=O)N3CCc4cc(OC)c(OC)cc4C3)c3cccnc3n2C)cc1OC [Example 131, 2-{(2E)-3-[1-methyl-2-(3,4-dimethoxyphenyl)-1H-pyrrolo[2,3-b]pyridin-3-yl]prop-2-enoyl}-6,7-dimethoxy-1,2,3,4-tetrahydroisoquinoline hydrochloride] | 96 | 141 | – | –
COc1cc2c(cc1OC)CN(C(=O)/C=C/c1c(-c3ccccc3)n(C)c3ncc(C)cc13)CC2 [Example 123, 2-[(2E)-3-(1,5-dimethyl-2-phenyl-1H-pyrrolo[2,3-b]pyridin-3-yl)prop-2-enoyl]-6,7-dimethoxy-1,2,3,4-tetrahydroisoquinoline hydrochloride] | 55 | 125 | – | –
COc1ccc(N2CCN(C(=O)/C=C/c3c(-c4ccccc4)n(C)c4ncccc34)CC2)cc1 [Example 98, 1-[(2E)-3-(1-methyl-2-phenyl-1H-pyrrolo[2,3-b]pyridin-3-yl)prop-2-enoyl]-4-(4-methoxyphenyl)piperazine] | 47 | 92 | – | –
COc1cc2c(cc1OC)C(CC(=O)O)N(C(=O)/C=C/c1c(-c3ccccc3)n(C)c3ncccc13)CC2.Cl (stereo not drawn) [Example 134, {6,7-dimethoxy-2-[(2E)-3-(1-methyl-2-phenyl-1H-pyrrolo[2,3-b]pyridin-3-yl)prop-2-enoyl]-1,2,3,4-tetrahydroisoquinolin-1-yl}acetic acid hydrochloride] | – | – | – | Inhibitory effect on collagen production induced by TGF-β (% inhibition) ([1]; 1 μM): 90%; Inhibitory effect on collagen production induced by TGF-β (% inhibition) ([1]; 3 μM): 111%
CC1c2cc(O)c(O)cc2CCN1C(=O)/C=C/c1c(-c2ccc3c(c2)OCO3)n(C)c2ccccc12 (stereo not drawn) [Example 114, 2-{(2E)-3-[1-methyl-2-(3,4-methylenedioxyphenyl)-1H-indol-3-yl]prop-2-enoyl}-1-methyl-6,7-dihydroxy-1,2,3,4-tetrahydroisoquinoline] | – | 94 | 165 | –
Cn1c(-c2ccccc2)c(/C=C/C(=O)N2CCc3ccccc3C2)c2cccnc21 [Example 104, 2-[(2E)-3-(1-methyl-2-phenyl-1H-pyrrolo[2,3-b]pyridin-3-yl)prop-2-enoyl]-1,2,3,4-tetrahydroisoquinoline hydrochloride] | – | – | – | concentration at 0.25 h [2]: 14 to 19 ng/mL; concentration at 1 h [2]: 44 to 71 ng/mL; concentration at 4 h [2]: 25 to 32 ng/mL
